In PubChem BioAssay AID200 (DTP/NCI, 2004):
Values joined by “and” are separate entries in the source; they are usually repeats but may differ in a detail not shown here. Equal entries are not always repeated. Inconclusive results and toxic doses are left out. Where a SMILES comes first, the peptide text is derived from it. Bridges are numbered along the chain shown (N, C = ends).

Test system: B6C3F1 mice, B16 melanoma ip, median survival T/C
Test: NCI In Vivo Anticancer Drug Screen. Data for tumor model B16 Melanoma (intraperitoneal) in B6C3F1 mice
Details: endpoint: median survival time, higher = longer survival
Procedure: The antitumor activity of compounds was measured in mice bearing transplantable tumors. Survival or tumor size were measured and the results are expressed as the measurement made in the treated group (T) divided by the measurement made in the vehicle treated control group (C). The tumor model used in this assay is B16 Melanoma (intraperitoneal) in B6C3F1 mice

[1] = dose: 3.13 mg/kg/injection, schedule: Q01DX009 (ip), vehicle: saline
[2] = dose: 50.0 mg/kg/injection, schedule: Q01DX009 (ip), vehicle: saline
[3] = dose: 100.0 mg/kg/injection, schedule: Q01DX009 (ip), vehicle: saline
[4] = dose: 200.0 mg/kg/injection, schedule: Q01DX009 (ip), vehicle: saline
[5] = dose: 400.0 mg/kg/injection, schedule: Q01DX009 (ip), vehicle: saline
[6] = dose: 100.0 mg/kg/injection, schedule: Q01DX009 (ip), vehicle: Klucel (hydroxypropylcellulose) (HPC)
[7] = dose: 200.0 mg/kg/injection, schedule: Q01DX009 (ip), vehicle: Klucel (hydroxypropylcellulose) (HPC)
[8] = dose: 12.5 mg/kg/injection, schedule: Q01DX009 (ip), vehicle: saline with Tween-80
[9] = dose: 25.0 mg/kg/injection, schedule: Q01DX009 (ip), vehicle: saline with Tween-80
[10] = dose: 50.0 mg/kg/injection, schedule: Q01DX009 (ip), vehicle: saline with Tween-80
[11] = dose: 1.56 mg/kg/injection, schedule: Q01DX009 (ip), vehicle: saline with Tween-80
[12] = dose: 6.25 mg/kg/injection, schedule: Q01DX009 (ip), vehicle: saline with Tween-80
[13] = dose: 6.25 mg/kg/injection, schedule: Q01DX009 (ip), vehicle: water
[14] = dose: 6.25 mg/kg/injection, schedule: Q01DX009 (ip), vehicle: Klucel (hydroxypropylcellulose) (HPC)
[15] = dose: 25.0 mg/kg/injection, schedule: Q01DX009 (ip), vehicle: Klucel (hydroxypropylcellulose) (HPC)
[16] = dose: 50.0 mg/kg/injection, schedule: Q01DX009 (ip), vehicle: Klucel (hydroxypropylcellulose) (HPC)
[17] = dose: 100.0 mg/kg/injection, schedule: Q01DX009 (ip), vehicle: saline with Tween-80
[18] = dose: 200.0 mg/kg/injection, schedule: Q01DX009 (ip), vehicle: saline with Tween-80
[19] = dose: 400.0 mg/kg/injection, schedule: Q01DX009 (ip), vehicle: saline with Tween-80

In the case of `C=C1C(=O)OC2CC(C)C3C4OC4C(O)C3(C)C(O)C12` (centres undefined), the T/C (dose: 0.4 mg/kg/injection, schedule: Q01DX009 (ip), vehicle: saline) is reported as 104 % of control, the T/C (dose: 0.8 mg/kg/injection, schedule: Q01DX009 (ip), vehicle: saline) is reported as 110 % of control and the T/C (dose: 1.56 mg/kg/injection, schedule: Q01DX009 (ip), vehicle: saline) is reported as 108 % of control. For the same molecule, the T/C [1] was 124 % of control.
For `CN(C)N=Nc1cccc(C(N)=O)c1`, the T/C [2] was 119 % of control and the T/C [3] was 67 % of control.
With `NC(N)=O` the T/C [2] was 99 % of control, the T/C [3] was 100 % of control and the T/C [4] was 106 % of control. The T/C [5] was 95 % of control.
In the case of `CCCC(NC(=O)CNC(=O)CNC(=O)OCc1ccccc1)C(=O)O` (centres undefined) (HELM PEPTIDE1{[O=C(OCc1ccccc1)[*:2]].G.G.[CCCC(N[*:1])C(=O)O]}$$$$V2.0), the T/C [6] is reported as 105 % of control, the T/C [7] is reported as 103 % of control and the T/C (dose: 400.0 mg/kg/injection, schedule: Q01DX009 (ip), vehicle: Klucel (hydroxypropylcellulose) (HPC)) is reported as 112 % of control.
In the case of `O=C(O[Si](Cc1ccccc1)(Cc1ccccc1)Cc1ccccc1)N(CCCl)CCCl`, the T/C (dose: 6.0 mg/kg/injection, schedule: Q01DX009 (ip), vehicle: saline with Tween-80) is reported as 103 % of control, the T/C [8] is reported as 108 % of control and the T/C [9] is reported as 101 % of control and 106 % of control. The T/C [10] was 113 % of control and 106 % of control.
In the case of `O=C(O)CCCc1ccc(N(CCCl)CCCl)cc1`, the T/C [11] is reported as 113 % of control and 106 % of control, the T/C (dose: 3.13 mg/kg/injection, schedule: Q01DX009 (ip), vehicle: saline with Tween-80) is reported as 119 % of control and 103 % of control and the T/C [12] is reported as 118 % of control. For the same molecule, the T/C [8] was 98 % of control and 106 % of control.
In the case of `CNC(=O)c1cccc2c(Nc3ccc(NS(C)(=O)=O)cc3OC)c3cccc(C)c3nc12`, the T/C (dose: 0.75 mg/kg/injection, schedule: Q01DX009 (ip), vehicle: water) is reported as 116 % of control, the T/C (dose: 0.78 mg/kg/injection, schedule: Q01DX009 (ip), vehicle: water) is reported as 114 % of control and the T/C (dose: 3.0 mg/kg/injection, schedule: Q01DX009 (ip), vehicle: water) is reported as 168 % of control. For the same molecule, the T/C [13] was 106 % of control.
`O=C(CC(=O)C(F)(F)F)c1csc2ccccc12` was tested, and the T/C (dose: 3.12 mg/kg/injection, schedule: Q01DX009 (ip), vehicle: Klucel (hydroxypropylcellulose) (HPC)) was 112 % of control, the T/C [14] was 89 % of control and the T/C (dose: 12.5 mg/kg/injection, schedule: Q01DX009 (ip), vehicle: Klucel (hydroxypropylcellulose) (HPC)) was 103 % of control. For the same molecule, the T/C [15] was 113 % of control, the T/C [16] was 100 % of control and the T/C [6] was 87 % of control.
With `CCCCN(CCCC)CCNc1ccc(Cl)c2oc3cc(C)ccc3c(=O)c12` the T/C [2] was 94 % of control and the T/C [3] was 87 % of control.
In the case of `N#CCc1c[nH]c2ccc([N+](=O)[O-])cc12`, the T/C [10] is reported as 102 % of control, the T/C [17] is reported as 100 % of control and the T/C [18] is reported as 108 % of control.
In the case of `CO[C@@H]1[C@H](O)CC[C@]2(CO2)[C@H]1[C@@]1(C)O[C@@H]1CC=C(C)C`, the T/C [11] is reported as 102 % of control and 105 % of control, the T/C (dose: 3.12 mg/kg/injection, schedule: Q01DX009 (ip), vehicle: saline with Tween-80) is reported as 108 % of control and 109 % of control and 122 % of control and the T/C [1] is reported as 108 % of control. For the same molecule, the T/C (dose: 6.25 mg/kg/injection, schedule: Q01DX009 (ip), vehicle: saline) was 111 % of control and the T/C [17] was 104 % of control.
For `COc1cccc2c1C(=O)c1c(O)c3c(c(O)c1C2=O)CC(O)(/C(C)=N/NC(=O)CCCCC(=O)N/N=C(\C)C1(O)Cc2c(O)c4c(c(O)c2C(OC2CC(N)C(O)C(C)O2)C1)C(=O)c1c(OC)cccc1C4=O)CC3OC1CC(N)C(O)C(C)O1` (centres undefined), the T/C (dose: 1.56 mg/kg/injection, schedule: Q01DX009 (ip), vehicle: water) was 191 % of control, the T/C (dose: 3.12 mg/kg/injection, schedule: Q01DX009 (ip), vehicle: water) was 216 % of control and the T/C [13] was 335 % of control.
`O=C(NC(=S)Nc1ccccc1)c1ccccc1` was tested, and the T/C (dose: 9.4 mg/kg/injection, schedule: Q01DX009 (ip), vehicle: Klucel (hydroxypropylcellulose) (HPC)) was 99 % of control, the T/C (dose: 18.75 mg/kg/injection, schedule: Q01DX009 (ip), vehicle: Klucel (hydroxypropylcellulose) (HPC)) was 94 % of control and the T/C (dose: 37.5 mg/kg/injection, schedule: Q01DX009 (ip), vehicle: Klucel (hydroxypropylcellulose) (HPC)) was 101 % of control. For the same molecule, the T/C (dose: 75.0 mg/kg/injection, schedule: Q01DX009 (ip), vehicle: Klucel (hydroxypropylcellulose) (HPC)) was 103 % of control.
`CC1(C)OC1CS(=O)c1ccccc1` (centres undefined) was tested, and the T/C [8] was 96 % of control, the T/C (dose: 12.5 mg/kg/injection, schedule: Q01DX009 (ip), vehicle: saline) was 93 % of control and the T/C [9] was 99 % of control. For the same molecule, the T/C (dose: 25.0 mg/kg/injection, schedule: Q01DX009 (ip), vehicle: saline) was 98 % of control, the T/C [10] was 102 % of control and the T/C [2] was 96 % of control. The T/C [17] was 95 % of control, the T/C [3] was 98 % of control and the T/C [18] was 90 % of control. For the same molecule, the T/C [4] was 98 % of control, the T/C [19] was 89 % of control and the T/C [5] was 93 % of control.
For `CCC(C)C1NC(=O)C(CC(C)C)NC(=O)C(C(C)C)NC(=O)C2CSSCC(NC1=O)C(=O)N2` (centres undefined) (cyclo(CCVLI); disulfide 1-2; configuration not given here), the T/C (dose: 31.25 micrograms/kg/injection, schedule: Q01DX009 (ip), vehicle: Klucel (hydroxypropylcellulose) (HPC)) was 105 % of control, the T/C (dose: 62.5 micrograms/kg/injection, schedule: Q01DX009 (ip), vehicle: Klucel (hydroxypropylcellulose) (HPC)) was 105 % of control and the T/C (dose: 125.0 micrograms/kg/injection, schedule: Q01DX009 (ip), vehicle: Klucel (hydroxypropylcellulose) (HPC)) was 96 % of control. For the same molecule, the T/C (dose: 500.0 micrograms/kg/injection, schedule: Q01DX009 (ip), vehicle: Klucel (hydroxypropylcellulose) (HPC)) was 94 % of control and the T/C (dose: 1000.0 micrograms/kg/injection, schedule: Q01DX009 (ip), vehicle: Klucel (hydroxypropylcellulose) (HPC)) was 95 % of control.
`O=c1cc(-c2ccc3ccccc3n2)oc2ccc(Cl)cc12` was tested, and the T/C (dose: 10.0 mg/kg/injection, schedule: Q01DX009 (ip), vehicle: saline with Tween-80) was 99 % of control, the T/C (dose: 20.0 mg/kg/injection, schedule: Q01DX009 (ip), vehicle: saline with Tween-80) was 101 % of control and the T/C (dose: 40.0 mg/kg/injection, schedule: Q01DX009 (ip), vehicle: saline with Tween-80) was 95 % of control.
In the case of `COC(=O)Nc1cn2cc(C(=O)c3cccs3)ccc2n1`, the T/C [14] is reported as 122 % of control, the T/C [15] is reported as 159 % of control and 175 % of control and the T/C (dose: 50.0 mg/kg/injection, schedule: Q01DX009 (ip), vehicle: other) is reported as 179 % of control.
In the case of `COc1cc(C(C)(C)C)cc(OC)c1C(O)(c1c(OC)cc(C(C)(C)C)cc1OC)c1c(OC)cc(C(C)(C)C)cc1OC`, the T/C [12] is reported as 107 % of control, the T/C [8] is reported as 114 % of control and 106 % of control and the T/C [9] is reported as 112 % of control and 106 % of control. For the same molecule, the T/C [10] was 117 % of control and the T/C [17] was 109 % of control.
With `CC(O)CCC(=O)c1ccoc1` (centres undefined) the T/C (dose: 0.62 mg/kg/injection, schedule: Q03HX027 (ip), vehicle: saline) was 97 % of control, the T/C (dose: 1.25 mg/kg/injection, schedule: Q03HX027 (ip), vehicle: saline) was 113 % of control and the T/C (dose: 2.5 mg/kg/injection, schedule: Q03HX027 (ip), vehicle: saline) was 105 % of control. For the same molecule, the T/C (dose: 5.0 mg/kg/injection, schedule: Q01DX009 (ip), vehicle: saline) was 105 % of control, the T/C (dose: 5.0 mg/kg/injection, schedule: Q03HX027 (ip), vehicle: saline) was 114 % of control and the T/C (dose: 10.0 mg/kg/injection, schedule: Q01DX009 (ip), vehicle: saline) was 93 % of control. For the same molecule, the T/C (dose: 10.0 mg/kg/injection, schedule: Q03HX027 (ip), vehicle: saline) was 105 % of control and the T/C (dose: 20.0 mg/kg/injection, schedule: Q01DX009 (ip), vehicle: saline) was 98 % of control.
For `c1ccc(-c2cc3cc4ccccc4cn3c2)cc1`, the T/C [10] was 110 % of control, the T/C [17] was 118 % of control and the T/C [18] was 116 % of control. The T/C [19] was 105 % of control and the T/C (dose: 800.0 mg/kg/injection, schedule: Q01DX009 (ip), vehicle: saline with Tween-80) was 108 % of control.
`CC1C(c2ccccc2)OC(N2CCOCC2)C(C)(C)CN1C` (centres undefined) was tested, and the T/C [10] was 103 % of control, the T/C [17] was 99 % of control and the T/C [18] was 96 % of control. The T/C [19] was 100 % of control.
For `O=C(O)CNC(=O)C(CSCc1ccccc1)NC(=O)OCc1ccccc1` (centres undefined), the T/C [16] was 95 % of control, the T/C [10] was 95 % of control and the T/C [6] was 107 % of control. For the same molecule, the T/C [17] was 88 % of control, the T/C [7] was 102 % of control and the T/C [18] was 90 % of control.
